From PubChem BioAssay (NCI)
“And” between values parts separate entries of the source, which are not always exact repeats. Equal entries are not always repeated.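 Assay format: 96-well plates, 48-hour exposure. At the GI50, growth is halved. TGI marks complete inhibition of growth.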

Experiments:
Test in all cases: DTP human tumour cell line panel, 48 h
[1] = tested on: DU-145 prostate
[2] = tested on: HOP-62 NSCLC
[3] = tested on: M14 melanoma
[4] = tested on: OVCAR-4 ovarian
[5] = tested on: OVCAR-8 ovarian
[6] = tested on: PC-3 prostate
[7] = tested on: SK-MEL-2 melanoma
[8] = tested on: SN12C renal
[9] = tested on: SNB-75 CNS
[10] = tested on: SW-620 colon

Cc1ccc2c(c1)C(=O)/C(=C/c1ncc([N+](=O)[O-])n1C)O2
GI50 [1]: 2.65 µM | TGI [1]: 7.63 µM | GI50 [2]: 5.79 µM | TGI [2]: 16.9 µM | GI50 [3]: 1.11 µM | TGI [3]: 4.9 µM | GI50 [4]: 2.15 µM | TGI [4]: > 22.7 µM | GI50 [5]: 0.481 µM | TGI [5]: 7 µM | GI50 [6]: 2.35 µM | TGI [6]: > 24.9 µM | GI50 [7]: 1.88 µM | TGI [7]: 3.54 µM | GI50 [8]: 1.77 µM | TGI [8]: 6.55 µM | GI50 [9]: 3.14 µM | TGI [9]: 22.8 µM | GI50 [10]: 0.271 µM | TGI [10]: 2.3 µM

COc1cc(OC)cc(-c2ccc(-c3ccc(C(=N)N)o3)o2)c1
GI50 [1]: 4.28 µM | TGI [1]: 15.2 µM | GI50 [2]: 5.65 µM | TGI [2]: 19.1 µM | GI50 [3]: 2.07 µM | TGI [3]: 4.36 µM | GI50 [4]: 3.51 µM | TGI [4]: 14.8 µM | GI50 [5]: 3.75 µM | TGI [5]: 14 µM | GI50 [6]: 4.77 µM | TGI [6]: 17.5 µM | GI50 [7]: 2.44 µM | TGI [7]: 5.35 µM | GI50 [8]: 2.38 µM | TGI [8]: 5.15 µM | GI50 [9]: 2.2 µM | TGI [9]: 13.8 µM | GI50 [10]: 1.88 µM | TGI [10]: 4.06 µM

O=C(NCCOCCOCCNc1cccc2c1C(=O)N(C1CCCNC1=O)C2=O)c1cc2c(o1)C(=O)c1ccccc1C2=O (centres undefined)
GI50 [1]: 1.69 µM | TGI [1]: 3.11 µM | GI50 [2]: 1.91 µM | TGI [2]: 3.37 µM | GI50 [3]: 0.772 µM | TGI [3]: 2.18 µM | GI50 [4]: 1.41 µM | TGI [4]: 2.73 µM | GI50 [5]: 2.31 µM | TGI [5]: 10.6 µM | GI50 [6]: 2.63 µM | TGI [6]: 46 µM | GI50 [7]: 2.11 µM | TGI [7]: 6.1 µM | GI50 [8]: 1.52 µM | TGI [8]: 2.96 µM | GI50 [9]: 2.65 µM | TGI [9]: 4.61 µM | GI50 [10]: 2.35 µM | TGI [10]: 7.52 µM

O=[N+]([O-])/C=C\c1ccc(Cl)c(Cl)c1
GI50 [1]: 1.81 µM | TGI [1]: 4.15 µM | GI50 [2]: 2.88 µM | TGI [2]: 9.57 µM | GI50 [3]: 1.63 µM | TGI [3]: 3.29 µM | GI50 [4]: 11.5 µM | TGI [4]: 24 µM | GI50 [5]: 1.94 µM | TGI [5]: 4.16 µM | GI50 [6]: 1.24 µM | TGI [6]: 3.93 µM | GI50 [7]: 2.56 µM | TGI [7]: 7.61 µM | GI50 [8]: 4.31 µM | TGI [8]: 62.5 µM | GI50 [9]: 4.47 µM | TGI [9]: 17.5 µM | GI50 [10]: 1.3 µM | TGI [10]: 3.3 µM

COc1cnc2cc(C(=O)O)c3c([N+](=O)[O-])cccc3c2c1
TGI [1]: > 100 µM | TGI [2]: > 100 µM | TGI [3]: > 100 µM | TGI [4]: > 100 µM | TGI [5]: > 100 µM | TGI [6]: > 100 µM | TGI [7]: > 100 µM | TGI [8]: > 100 µM | TGI [9]: > 100 µM | TGI [10]: > 100 µM

CCOC(=O)/C=C(/C(=O)OCC)n1cc(Cl)c(=O)n(CC(=O)OCC)c1=O
TGI [1]: 8.47 µM and 31.3 µM | GI50 [2]: 30.8 µM | TGI [2]: 25 µM and 91.3 µM | GI50 [3]: 18 µM | TGI [3]: 10.4 µM and 40.2 µM | GI50 [4]: 34.2 µM | TGI [4]: 14 µM and > 100 µM | GI50 [5]: 12.6 µM | TGI [5]: 8.43 µM and 28.4 µM | GI50 [6]: 19.5 µM | TGI [6]: 9.64 µM and 34.6 µM | GI50 [7]: 26.2 µM | TGI [7]: 11.2 µM and 46.3 µM | TGI [8]: 10.9 µM and 32.7 µM | GI50 [9]: 16.6 µM | TGI [9]: 13 µM and 33.6 µM | GI50 [10]: 3.04 µM | TGI [10]: 4.45 µM and 12.9 µM

CNC(=O)OCc1c(COC(=O)NC)c(-c2ccc(Cl)c(Cl)c2)n2c1SCC2
TGI [1]: 39.5 µM | TGI [2]: 50.7 µM | TGI [3]: 37.9 µM | GI50 [4]: 3.59 µM | TGI [4]: 25.5 µM | TGI [5]: 39.8 µM | TGI [6]: 55.1 µM | TGI [7]: 26.7 µM | TGI [8]: 34 µM | TGI [9]: 25.1 µM | TGI [10]: 26.3 µM

CCc1c(Oc2ccc(C(C)=O)cc2)c2ccccc2[nH]c1=O
GI50 [1]: 25.4 µM | TGI [1]: 73.6 µM | GI50 [2]: 20.4 µM | TGI [2]: 74.3 µM | GI50 [3]: 18.5 µM | TGI [3]: 65.9 µM | GI50 [4]: 70 µM | TGI [4]: > 100 µM | GI50 [5]: 19.1 µM | TGI [5]: 53.4 µM | GI50 [6]: 0.97 µM | TGI [6]: > 40.8 µM | GI50 [7]: 59.5 µM | TGI [7]: > 100 µM | GI50 [8]: 16.6 µM | TGI [8]: 61.8 µM | GI50 [9]: > 26.9 µM | TGI [9]: > 100 µM | GI50 [10]: 22.2 µM | TGI [10]: 67.4 µM

O=C1/C(=C/c2ccc(Br)cc2)C=C(c2ccccc2)N1CCc1ccccc1
GI50 [1]: 2.54 µM | TGI [1]: 15.8 µM | GI50 [2]: 0.347 µM | TGI [2]: 1.22 µM | GI50 [3]: 3.53 µM | TGI [3]: 71.8 µM | GI50 [4]: 0.554 µM | TGI [4]: 3.13 µM | GI50 [5]: 1.04 µM | TGI [5]: 10 µM | GI50 [6]: 1.2 µM | TGI [6]: 5.06 µM | GI50 [7]: 4.47 µM | TGI [7]: 27.2 µM | GI50 [8]: 2.15 µM | TGI [8]: 20.4 µM | GI50 [9]: 0.66 µM | TGI [9]: 3.83 µM | GI50 [10]: 5.34 µM | TGI [10]: > 100 µM

O=C1CNCCCN2CCN(CCCNCC(=O)Nc3ccc(cc3)S(=O)(=O)c3ccc(cc3)NC(=O)CNCCCN3CCN(CCCNCC(=O)Nc4ccc(cc4)S(=O)(=O)c4ccc(cc4)N1)CC3)CC2
TGI [1]: > 100 µM | TGI [2]: > 63.7 µM | TGI [3]: > 100 µM | TGI [4]: 97.7 µM | TGI [5]: > 56.9 µM | TGI [6]: > 100 µM | TGI [7]: 90.1 µM | TGI [8]: > 80.9 µM | TGI [9]: > 100 µM | TGI [10]: > 100 µM

CC1CCC2(C(=O)O)CCC3(C)C(=CCC4C5(C)CC(O)C(O)C(C)(CO)C5C(O)CC43C)C2C1C (centres undefined)
TGI [1]: > 100 µM | TGI [2]: > 83.7 µM | TGI [3]: > 100 µM | TGI [4]: > 100 µM | TGI [5]: 42.6 µM | TGI [6]: > 100 µM | TGI [7]: 36.6 µM | TGI [8]: 25.8 µM | TGI [9]: 79.7 µM | TGI [10]: > 100 µM

Cn1cc(-c2cnc3ccc(NC(=O)Nc4ccc(F)c(Br)c4)cc3n2)cn1
GI50 [1]: 1.67 µM | TGI [1]: 3.96 µM | GI50 [2]: 1.8 µM | TGI [2]: 3.84 µM | GI50 [3]: 1.57 µM | TGI [3]: 3.14 µM | GI50 [4]: 1.53 µM | TGI [4]: 5.55 µM | GI50 [5]: 1.83 µM | TGI [5]: 4.34 µM | GI50 [6]: 1.44 µM | TGI [6]: 3.62 µM | GI50 [7]: 1.97 µM | TGI [7]: 4.13 µM | GI50 [8]: 1.87 µM | TGI [8]: 4.79 µM | GI50 [9]: 1.97 µM | TGI [9]: 4.8 µM | GI50 [10]: 1.85 µM | TGI [10]: 3.83 µM

N#CSCC1CC(O)(c2ccccc2)C(c2ccccc2)C(c2ccc(Cl)cc2)O1 (centres undefined)
GI50 [1]: 2.02 µM | TGI [1]: 4.67 µM | GI50 [2]: 2.08 µM | TGI [2]: 3.96 µM | GI50 [3]: 1.53 µM | TGI [3]: 3.15 µM | GI50 [4]: 1.22 µM | TGI [4]: 2.53 µM | GI50 [5]: 1.78 µM | TGI [5]: 3.83 µM | GI50 [6]: 1.85 µM | TGI [6]: 4.98 µM | GI50 [7]: 2.33 µM | TGI [7]: 4.37 µM | GI50 [8]: 1.41 µM | TGI [8]: 2.91 µM | GI50 [9]: 1.55 µM | TGI [9]: 4.28 µM | GI50 [10]: 1.63 µM | TGI [10]: 3.93 µM

O=c1oc2ccc(F)cc2c(=O)n1-c1ccc(F)cc1F
GI50 [1]: 4.18 µM | TGI [1]: > 100 µM | GI50 [2]: 2.39 µM | TGI [2]: 8.05 µM | GI50 [3]: 2.47 µM | TGI [3]: 8.04 µM | GI50 [4]: 3.02 µM | TGI [4]: 30.2 µM | GI50 [5]: 3.39 µM | TGI [5]: 91.6 µM | GI50 [6]: 2.81 µM | TGI [6]: 10.1 µM | GI50 [7]: 1.98 µM | TGI [7]: 5.04 µM | GI50 [8]: 2.72 µM | TGI [8]: 13.7 µM | GI50 [9]: 1.58 µM | TGI [9]: 5.43 µM | GI50 [10]: 3.33 µM | TGI [10]: 80.6 µM
